{
  "source": "patent US6531453B1",
  "about": "“NKT cell activators containing α-glycosylceramides” (Kirin Beera Kabushiki Kaisha, priority 1997, dated 2003)",
  "key": {"pregnant C57BL/6 mice": {"tested_on": "pregnant C57BL/6 mice", "assay": "Induction of abortion in pregnant C57BL/6 mice", "assay_type": "in vivo, mouse", "protocol": "C57BL/6 mice (Japan SLC) were used for the following experiment. The day when a vaginal plug was observed was defined as day 0. Pregnant mice were divided into 2 groups (6 mice per group), i.e., one group to which 150 μg/kg of KRN 7000 were intravenously administered on days 7, 8 and 9, and another to which PBS (phosphate-buffered saline) was administered in the same way. On day 12, the uterus was removed to observe the state of the embryo."}, "[1]": {"tested_on": "mouse lymphoma YAC-1 cells", "assay": "Cytotoxic activity of spleen NKT cells against tumor cells (4 hour 51Cr-release) after i.v. administration to RAG-1KO/Vα14tg/Vβ8.2tg mice", "assay_type": "in vivo", "details": "100 μg/kg i.v., spleen taken 24 hours later, FIG. 1", "protocol": "A vehicle (physiological saline containing 0.025% Polysolvate 20) or 100 μg/kg of KRN 7000 was intravenously administered to RAG-1KO/Vα14tg/Vβ8.2tg mice (bearing a large number of NKT cells but not B cells, T cells or NK cells in their lymphocyte fraction), and 24 hours later, the spleen was taken out from each mouse to prepare spleen cells by conventional methods. RAG-1KO/Vαl14tg/Vβ8.2tg mice were established by deletion of the RAG-1 gene and forcible expression of Vα14 and Vβ8.2 gene (Kawano T. et al., Science, 278, 1626-1629 (1997)). Thesemice are available from Masaru Taniguchi, School of Medicine, Chiba University. Cytotoxic activity of these spleen cells to mouse lymphoma YAC-1 cells was studied by the 4 hour-^51Cr-release method (Kobayashi, E. et al., Oncology Res., 7, 529 ([…]))."}, "NOD/ShiJic (NOD) mice": {"tested_on": "NOD/ShiJic (NOD) mice", "assay": "Suppression of spontaneous diabetes onset in NOD mice", "assay_type": "in vivo, mouse", "details": "100 μg/kg i.p. twice a week from 7 weeks of age; control 80%, FIG. 7", "protocol": "Ten animals per group of NOD/ShiJic (NOD) mice (6-week-old, females) (Japan Clea, Inc.) were used for the following experiment. […] The animals were divided into two groups, i.e., one group to which 100 μg/kg of KRN 7000 were intraperitoneally administered twice a week starting from 7-weeks of age, and an untreated control group. The presence and absence of diabetic symptoms was examined every week. The blood glucose level was measured using a glucometer (Miles Sankyo), and mice showing the value of more than 200 mg/dL twice consecutively were diagnosed to be diabetic."}, "MRL lpr/lpr mice [2]": {"tested_on": "MRL lpr/lpr mice", "assay": "Suppression of lymph node swelling in MRL lpr/lpr mice", "assay_type": "in vivo, mouse", "details": "100 μg/kg i.p. twice a week from the age of 11 weeks", "protocol": "Ten animals per group of female MRL lpr/lpr mice (Sakamoto, A. Clin. Immunol., 28, 1558 (1966)), were used for the following experiment. During the observation of 21 MRL mice purchased at the age of 6 weeks, swelling of the axillary lymph nodes was recognized in one mouse at the age of 10 weeks. Accordingly, the other 20 mice were randomly divided into 2 groups. A vehicle (a physiological saline solution containing 0.025% Polysolvate 20) or KRN 7000 (100 μg/kg) was intraperitoneally administered twice a week (on Tuesday and Friday) to the abovementioned 2 groups of animals starting from the age of 11 weeks. Axillary and inguinal lymph nodes were examined twice a week to observe the progress of lymph node swelling with time. The lymph nodes were scored into 4 grades, i.e., −(0), +(1), ++(2) and +++(3) as a function of size. The total scores of both right and left sides of the axillary lymph node (A) or inguinal lymph node (B) were expressed as lymph node swelling indexes as shown in FIG. 3."}, "[3]": {"assay": "Acute toxicity test by a single administration", "assay_type": "in vivo", "details": "mouse, in vivo, 10 mg/kg; intravenous, single administration, mice", "text": "(§1) The compound of Example 1 was intravenously administered to mice."}, "mice": {"tested_on": "mice", "assay": "Acute toxicity test by a single administration", "assay_type": "in vivo", "details": "intravenous, 10 mg/kg", "text": "as §1"}, "MRL lpr/lpr mice [4]": {"tested_on": "MRL lpr/lpr mice", "assay": "Survival period of MRL lpr/lpr mice", "assay_type": "in vivo, mouse", "details": "100 μg/kg i.p. twice a week from the age of 5 weeks, 10 animals per group; all vehicle mice died within 250 days, FIG. 4", "protocol": "Ten animals per group of female MRL lpr/lpr mice were used for the following experiment. MLR mice purchased at the age of 4 weeks were randomly divided into 2 groups (10 animals per group). A vehicle (a physiological saline solution containing 0.025% Polysolvate 20) or KRN 7000 (100 μg/kg) was intraperitoneally administered twice a week (on Tuesday and Friday) to the animals starting from the age of 5 weeks. Survival of the animals was observed every day."}},
  "data": [
    {"compound": "CCCCCCCCCCCCCCCCCCCCCCCCCC(=O)N[C@@H](CO[C@H]1O[C@H](CO)[C@H](O)[C@H](O)[C@H]1O)[C@H](O)[C@H](O)CCCCCCCCCCCCCC", "note": "[KRN 7000, (2S,3S,4R)-1-(α-D-galactopyranosyloxy)-2-hexacosanoylamino-3,4-octadecanediol]", "values": [
      {"measurement": "embryos dead and resorbed", "setting": "pregnant C57BL/6 mice; 150 μg/kg i.v. on days 7, 8 and 9, uterus on day 12, of the total of 36 embryos", "result": 12},
      {"measurement": "abortion rate", "setting": "pregnant C57BL/6 mice; 150 μg/kg i.v. on days 7, 8 and 9, PBS group 5.6%", "result": 33, "unit": "%"},
      {"measurement": "cytotoxic activity against YAC-1 cells of spleen cells vs vehicle-administered mice", "setting": "[1]", "result": "significantly higher"},
      {"measurement": "mice that became diabetic at the age of 35 weeks", "setting": "NOD/ShiJic (NOD) mice", "result": "none"},
      {"measurement": "swelling in the axillary lymph nodes with aging", "setting": "MRL lpr/lpr mice [2]; FIG. 3A", "result": "clearly suppressed"},
      {"measurement": "swelling in the inguinal lymph nodes with aging", "setting": "MRL lpr/lpr mice [2]; FIG. 3B", "result": "clearly suppressed"},
      {"measurement": "LD50", "setting": "[3]", "result": "> 10", "unit": "mg/kg"},
      {"measurement": "toxicity symptoms", "setting": "mice", "result": "no particular symptom"},
      {"measurement": "mice surviving at 350 days after the start of the administration", "setting": "MRL lpr/lpr mice [4]", "result": "three mice"}
    ]}
  ]
}
